Read-outs that look alike come from different tables or passages of the source.
Key:
Format in all cases: physicochemical
[1] = Aged retention of fragrance components in powder detergent, GC/MS; details: 1 month, 37° C., 70% relative humidity; for Retention With coating: composition as Example 1 with coating in detergent base; for Retention Without coating: composition as Example 1 without coating in detergent base; for Retention free perfume: free perfume in detergent base, 0.35 wt %
Protocol: Compositions were prepared substantially as set out in Example 1 wherein one composition was provided with a coating and the other not.
Compositions were incorporated into standard, unperfumed detergent bases resulting in 130.00 g perfumed powder detergent with a perfume level of 0.35 wt % based on total powder detergent. As a reference, 0.46 g of free perfume was incorporated into 129.54 g of the same standard detergent base. Both samples and reference were filled separately into carton boxes, sealed and stored in a climate chamber at 70% relative humidity and 37° C. for 1 month. All samples were compared in terms of aged fragrance material profile measured by GC/MS analysis.

[2] = Loss Factor (vapour pressure x water solubility at room temperature)
Excerpt: Preferred components of a fragrance material for addition to the outer matrix are substances that have a Loss Factor (FL) that is lower than 10^2 Pa ppm. The term <<Loss Factor>> refers to a parameter that is related to the losses of fragrance material during drying and is defined as the product of the pure component vapour pressure (Pa) and the water solubility (ppm) at room temperature. Vapour pressures and water solubility data for commercially available fragrance components are well known and so the Loss Factor for a given fragrance component may be easily calculated. Alternatively, vapour pressure and water solubility measurements may be easily taken using techniques well known in the art. […] The water solubility of fragrances may be measured according to techniques known in the art for the measurement of sparingly water-soluble materials. A preferred technique involves the formation of a saturated solution of a fragrance component in water. A tube with a dialysed membrane is placed in the solution such that after equilibration an idealised solution is formed within the tube. The tube may be removed and the water solution therein extracted with a suitable organic solvent to remove the fragrance component. Finally the extracted fragrance component may be concentrated and measured, for example using gas chromatography.

[3] = Retention of fragrance material components after granulation by GC/MS; details: for Divided. Initial Retention: fragrance divided between core particles and outer matrix (Example 2.2); for Undivided. Initial Retention: whole fragrance in outer matrix (Example 2.1)
Excerpt: In this example, fragrance material components are divided between core particles and outer matrix. The selection is made such that fragrance components having a loss factor of FL>10^2 Pa ppm are present in core particles whereas the components having a loss factor of FL<10^2 Pa ppm are present in the outer matrix. Such a composition is then compared with a composition wherein total fragrance material is provided in an outer matrix, the core particles being fragrance material-free. […] The retention of certain fragrance material components after the granulation process was measured by GC/MS analysis.

[4] = vapour pressure (Pa) x water solubility (ppm), room temperature

| SMILES | Retention With coating [1] | Retention Without coating [1] | Retention free perfume [1] | Loss Factor FL [2, 4] | Divided. Initial Retention [3] | Undivided. Initial Retention [3] | Loss Factor FL [2] |
| --- | --- | --- | --- | --- | --- | --- | --- |
| O=C(OC1CCCCC1)c1ccccc1O [Cyclohexyl salicylate] | – | – | – | 1.37 Pa ppm | 94% | 91% | – |
| O=C(OCc1ccccc1)c1ccccc1 [Benzyl benzoate] | – | – | – | – | 88% | 99% | – |
| CCC(C)(O)CCCC(C)C (centres unmarked) [Tetrahydro linalool] | 84% | 50% | 33% | 3466 Pa ppm | 97% | 47% | – |
| CC(=O)CCC1=C(C)CCCC1(C)C [Dihydro beta ionone] | – | – | – | – | 84% | 56% | 84 Pa ppm |
| CC(=O)/C=C/C1=C(C)CCCC1(C)C [Beta ionone] | – | – | – | 90 Pa ppm | 100% | 75% | – |
| CC(C)=CCCC(C)CCO (centres unmarked) [Citronellol] | 71% | 18% | 26% | 761 Pa ppm | 100% | 53% | – |
| CC(=O)OCc1ccccc1 [Benzyl acetate] | 50% | 26% | 0% | – | – | – | – |
| C=CC(C)(CCC=C(C)C)OC(C)=O (centres unmarked) [Linalyl acetate] | 80% | 39% | 8% | – | – | – | – |
| CCCCCCCCCC=O [Aldehyde C10] | – | – | – | – | 93% | 44% | 424 Pa ppm |

The next lines start with the values.

| Retention With coating [1] | Retention Without coating [1] | Retention free perfume [1] | Loss Factor FL [2, 4] | Divided. Initial Retention [3] | Undivided. Initial Retention [3] | Loss Factor FL [2] | SMILES |
| --- | --- | --- | --- | --- | --- | --- | --- |
| 65% | 36% | 4% | – | – | – | – | CC(C=O)Cc1ccc(C(C)(C)C)cc1 (centres unmarked) [Lilial] |
| 72% | 36% | 25% | – | – | – | – | OCCc1ccccc1 [Phenyl ethyl alcohol] |
| 91% | 51% | 49% | – | – | – | – | CC(=O)/C(C)=C/C1C(C)=CCCC1(C)C (centres unmarked) [Gamma methyl ionone] |
| 94% | 47% | 18% | – | – | – | – | CCCCCCOC(=O)c1ccccc1O [Hexyl salicylate] |
| 41% | 18% | 0% | – | – | – | – | C=C(C)[C@H]1CC=C(C)CC1 [Limonene] |

Source: US7166567B2, “Fragrance compositions” (Givaudan SA, priority 2000, dated 2007)
